Data: patent US20180318199A1, “Pharmaceutical Composition Having Anti-Aging Properties against High-Glucose” (TAIWAN LEADER BIOTECH CORP., priority 2017, published 2018)
Entries after “also recorded” stand apart in the source; their conditions may differ.

Tests used:
Assay type in all cases: cell-based, human
[1] = system: SIRT-1; assay: Immunoblotting of SIRT-1 and phos-SIRT-1 in HUVECs; conditions: ANM or RES + HG
Description: To determine whether ANM regulates HUVEC senescence through a SIRT-1-mediated pathway, protein expression levels of SIRT-1 are examined. In FIG. 9E, protein expression levels of SIRT-1 and phos-SIRT-1 are monitored by immunoblotting.
(§1) Cells are lysed by either RIPA lysis buffer or nuclear and cytoplasmic extraction reagents (Thermo Fisher Scientific). Protein concentrations are determined by Bio-Rad protein assay reagent (Bio-Rad Laboratories, Hercules, Calif.). Equal amounts of protein samples (60 μg) are separated by 7-12% SDS-PAGE and the separated proteins are transferred onto polyvinylidene […] (PVDC) membrane overnight. The transferred protein membranes are blocked with 5% non-fat dried milk for 30 min, followed by incubation with specific primary antibodies overnight, and either horseradish peroxidase-conjugated goat anti-rabbit or anti-mouse antibodies for 2 h. The blots are detected using VL Chemi-Smart 3000 (Viogene Biotek, Sunnyvale, Calif.) with the enhanced chemiluminescence (ECL) western blotting reagent (Millipore, Billerica, Mass.).

[2] = system: p16^INK4A, p21^CIP1 and SMP30; assay: Western blot of senescence-associated marker proteins in HNDFs
Description: In addition, in FIG. 2C, HNDFs are incubated with ANA (10 μM), ANH (10 μM) and ANM (10 μM) in the presence of HG (30 mM) for 72 h. Senescence-associated marker proteins such as p16^INK4A, p21^CIP1 and SMP30 are determined by western blot analysis.
In order to assess the cellular and molecular basis of the ANM-mediated inhibition of senescence, the expression levels of senescence-associated marker proteins including, p16^INK4A and p21^CIP1 are examined. In FIG. 4D, to determine the effect of ANM on senescence-associated protein expression, HNDFs are incubated with ANM (10 μM) or NAC (100 μM) in the presence or absence of HG (30 mM) for 72 h. Immunoblotting analysis is used to determine the protein levels with corresponding specific antibodies.
as §1

[3] = system: HUVECs; assay: SA-β-gal senescence assay in HUVECs; conditions: ANM 10 μM + HG 30 mM, 48 h; HG alone 6.38-fold
Description: Please refer to FIG. 9A˜FIG. 9H, which are views showing HG-induced senescence prevented by ANM in human umbilical vein endothelial cells (HUVECs). As shown in the figures, to further delineate the protective effects of ANM on another cell system, experiments are designed to investigate the protective effect of ANM on HUVECs incubated in media containing either NG or HG alone or with ANM for 48 h. Cell viability is measured by MTT assay. […] Cell viability is determined by MTT assay. Percentage of viable cells are normalized with control cells (NG). […] In addition, in FIG. 9B, cellular senescence is determined by SA-β-gal activity assay. […] In addition, in FIG. 9C and FIG. 9D, total cell lysate is extracted and senescence-associated marker proteins including p16^INK4A, p21^CIP1 total and acetylated p53 and FoxO1 are measured by western blot analysis.
Senescence-associated β-galactosidase (SA-β-gal) activity is determined in formaldehyde-fixed histochemical staining kit according to the manufacturer's instructions (Cell Signaling Technology, Danvers, Calif.). Briefly, cells are grown in 6-well plates at a density of 5×10^4 cells/well, and incubated with HG or test samples for 48 h (HUVECs) or 72 h (HNDFs). […]

[4] = system: HNDFs (CCD966SK); assay: MTT cytotoxicity of antcins against HNDFs; conditions: MTT, 72 h, up to 20 μM
Description: Please refer to FIG. 2A˜FIG. 2D, which are views showing HG-induced senescence affected by antcins in HNDFs. As shown in the figures, prior to an investigation, cytotoxicity of antcins against HNDFs is determined. In FIG. 2A, type of antcins are subjected to screen for potential anti-aging agents for skin aging. Names and chemical structures of the antcins are shown in the left and center column, respectively. The cytotoxic effects of antcins against HNDFs are investigated. Briefly, HNDFs are incubated with increasing concentrations (1, 5, 10 and 20 μM) of antcins including ANA, ANB, ANC, ANH, ANK and ANM for 72 h and the cell viability is determined by MTT assay. The 50% inhibitory concentrations (IC50) of each compound against HNDFs are shown in right column.
Cell viability is assessed by MTT colorimetric assay. Briefly, HNDFs (2×10^4cells/well) or HUVECs (5×10^4 cells/well) are seeded in a 24-well culture plate. After treatment with HG (15 and 30 mM) in the presence or absence of samples for 24-72 h, culture media is withdrawn and incubated with MTT (1 mg/mL) in fresh medium for 2 h. The MTT formazan crystals are dissolved in 400 μL of DMSO and the samples are measured at 570 nm […] using an ELISA microplate reader (Bio-Tek Instruments, Winooski, Vt.). The percentage of cell viability (%) is calculated as (A570 of treated cells/A570 of untreated cells)×100.

[5] = system: SIRT-1, SIRT-3, SIRT-6; assay: Western blot of SIRT proteins and phos-SIRT-1 in HNDFs; conditions: 72 h
Description: Total cell lysate is extracted and subjected to western blot analysis to monitor SIRT-1, SIRT-3, SIRT-6 protein levels.
The protein expression levels of SIRT-1, SIRT-6, p21^CIP1, SMP30, p53, FoxO and acetylation of p53 and FoxO1 are determined by western blot analysis.
To further understand the regulation of SIRT-1 by ANM, the effect of ANM on SIRT-1 activation and protein stability is examined under hyperglycemic conditions. In FIG. 7I, cells are incubated with JNK/SAPK or p38 MAPK inhibitors SP600125 (SP, 30 μM) and SB203580 (SB, 30 μM) in the presence of HG for 72 h. The protein expression levels of phos-SIRT-1 and SIRT-1 are determined by western blotting. Results are expressed as mean±S.E.M of three independent experiments. Statistical significance is set at ^ϕP<0.05 as compared to NG vs. HG and *P<0.05 as compared to HG vs. samples. Previous studies have shown that hyperphosphorylation of SIRT-1 at serine 47 (Ser47) is correlated with enhanced endothelial senescence. In addition, persistent activation of JNK1/2 by multiple factors including hyperglycemia induces extensive SIRT-1 proteasome degradation followed by phosphorylation at Ser47. […] Therefore, it is hypothesized that ANM-mediated suppression of JNK1/2 and p38 MAPK activation may have a functional role in the stability of SIRT-1 protein.
as §1

## C=C(CCC(C)C1CCC2C3=C(C(=O)C(O)C21C)C1(C)CCC(O)C(C)C1CC3)C(C)C(=O)O (stereo not shown) [ANM, antcin M]
[1]
  HG-induced SIRT-1 phosphorylation at Ser47 in HUVECs: significantly blocks
  SIRT-1 expression in HUVECs under HG: significantly rescues
[2]; 10 μM + HG 30 mM, 72 h
  SMP30 protein under HG (western blot): significantly upregulated
[2]; 10 μM + HG 30 mM, 72 h, western blot
  HG-induced p16^INK4A and p21^CIP1 protein expression: significantly downregulated; also recorded: significantly attenuates
[2]; ANM alone, no HG
  basal level of p21^CIP1 expression: significantly reduces
[3]
  SA-β-gal staining in HUVECs: 1.36 fold
[4]
  cytotoxicity to HNDFs (in words): did not show significant cytotoxicity
[5]; ANM 10 μM + HG 30 mM
  HG-induced reduction in SIRT-1, SIRT-3 and SIRT-6 proteins: significantly prevented
[5]; ANM 10 μM + HG
  SIRT-1 and SIRT-6 expression, control siRNA cells: significantly increases
[5]; ANM or RES + HG
  HG-induced SIRT-1 phosphorylation at Ser47: significantly attenuates
